Molecules are shown by their SMILES.

Among the data in patent US9867833B2, “Serine/threonine kinase inhibitors” (GENENTECH, INC., priority 2013, dated 2018) are IC50 values, retold here.

human ERK-2 (Mitogen Activated Kinase 1), sequence (P28482 8-360): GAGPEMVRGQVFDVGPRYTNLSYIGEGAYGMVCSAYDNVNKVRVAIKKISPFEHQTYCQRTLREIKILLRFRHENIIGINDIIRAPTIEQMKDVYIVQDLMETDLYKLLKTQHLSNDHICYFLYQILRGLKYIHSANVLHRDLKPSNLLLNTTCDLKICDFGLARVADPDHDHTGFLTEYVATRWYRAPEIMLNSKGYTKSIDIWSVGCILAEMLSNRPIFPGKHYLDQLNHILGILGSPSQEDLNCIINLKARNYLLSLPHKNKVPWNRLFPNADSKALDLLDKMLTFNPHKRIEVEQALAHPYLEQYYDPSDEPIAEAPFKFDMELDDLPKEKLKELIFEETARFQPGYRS

The target in the experiment is human ERK-2 (Mitogen Activated Kinase 1) (Homo sapiens (Human), UniProt P28482). Description: ERK-2 Enzymatic Assay. The note with it: human ERK-2 enzyme 5 nM, 25 μM ATP, S/T17 peptide substrate; isomer = configuration of CR2R3. It is filed as biochemical. An outline of the steps:
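Recombinant human ERK-2 (aa 8-360, N-terminal 6-His, E. coli) with 3-fold serially diluted compound. Per-well rates from linear fits converted to percent of control; IC50 by four-parameter fit.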
In general, IC50 refers to the concentration at which inhibition is half-maximal. Molecule `Cn1nccc1Nc1nccc(-c2cc3n4c(nnc4c2)[C@H](Cn2cc(Cl)cn2)CCO3)n1` [(S) I-42, (S)-4-(9-((4-Chloro-1H-pyrazol-1-yl)methyl)-8,9-dihydro-7H-6-oxa-1,2,2a^1-triazabenzo[cd]azulen-4-yl)-N-(1-methyl-1H-pyrazol-5-yl)pyrimidin-2-amine] gave an IC50 of 0.131 nM.

As for `COc1ncccc1C[C@H]1CN(C)c2cc(-c3ccnc(Nc4ccnn4C)n3)cc3nnc1n23` [(S) I-43, 4-(3-((2-methoxypyridin-3-yl)methyl)-5-methyl-4,5-dihydro-3H-1,2,2a^1,5-tetraazaacenaphthylen-7-yl)-N-(1-methyl-1H-pyrazol-5-yl)pyrimidin-2-amine], half-maximal inhibition (IC50) required 1.33 nM.

The molecule `Cn1nccc1Nc1nccc(-c2cc3n4c(nnc4c2)[C@H](Cc2ccc(F)cc2)CO3)n1` [(S) I-44, 4-(3-(4-fluorobenzyl)-3,4-dihydro-5-oxa-1,2,2a^1-triazaacenaphthylen-7-yl)-N-(1-methyl-1H-pyrazol-5-yl)pyrimidin-2-amine] came in with an IC50 of 5 nM. Against the preceding molecule, the IC50 is about 3.8-fold higher.

On to `CC(C)C[C@@H]1COc2cc(-c3ccnc(Nc4ccnn4C)n3)cc3nnc1n23` [(S) I-45, 4-(3-isobutyl-3,4-dihydro-5-oxa-1,2,2a^1-triazaacenaphthylen-7-yl)-N-(1-methyl-1H-pyrazol-5-yl)pyrimidin-2-amine], for which inhibition was half-maximal at 20.9 nM (IC50).

The molecule `COc1ccc(C[C@@H]2COc3cc(-c4ccnc(Nc5ccnn5C)n4)cc4nnc2n34)cc1F` [(S) I-46, 4-(3-(3-fluoro-4-methoxybenzyl)-3,4-dihydro-5-oxa-1,2,2a^1-triazaacenaphthylen-7-yl)-N-(1-methyl-1H-pyrazol-5-yl)pyrimidin-2-amine] registered an IC50 of 2.47 nM.

`Cn1nccc1Nc1cc(-c2cc3n4c(nnc4c2)[C@H](Cn2cc(Cl)cn2)CCO3)ccn1` [(S) I-47, 4-(9-((4-chloro-1H-pyrazol-1-yl)methyl)-8,9-dihydro-7H-6-oxa-1,2,2a^1-triazabenzo[cd]azulen-4-yl)-N-(1-methyl-1H-pyrazol-5-yl)pyridin-2-amine] showed an IC50 of 0.465 nM.

Molecule `Cn1nccc1Nc1cc(-c2cc3n4c(nnc4c2)[C@H](Cc2ccc(Cl)cc2)CO3)ccn1` [(S) I-48, 4-(3-(4-chlorobenzyl)-3,4-dihydro-5-oxa-1,2,2a^1-triazaacenaphthylen-7-yl)-N-(1-methyl-1H-pyrazol-5-yl)pyridin-2-amine] registered an IC50 of 12.3 nM.

For the molecule `COc1ccc(C[C@@H]2COc3cc(-c4ccnc(Nc5ccnn5C)n4)cc4nnc2n34)cc1` [(S) I-50, 4-(3-(4-methoxybenzyl)-3,4-dihydro-5-oxa-1,2,2a^1-triazaacenaphthylen-7-yl)-N-(1-methyl-1H-pyrazol-5-yl)pyrimidin-2-amine], the concentration for half-maximal inhibition (IC50) was 7.12 nM. This IC50 lies about 1.7-fold lower than the previous one.

Molecule `Cn1nccc1Nc1cc(-c2cc3n4c(nnc4c2)[C@H](Cc2ccc(F)c(F)c2)CO3)ccn1` [(S) I-54, 4-(3-(3,4-difluorobenzyl)-3,4-dihydro-5-oxa-1,2,2a^1-triazaacenaphthylen-7-yl)-N-(1-methyl-1H-pyrazol-5-yl)pyridin-2-amine] gave an IC50 of 22.3 nM.

Turning to `Cn1nccc1Nc1nccc(-c2cc3n4c(nnc4c2)[C@H](Cn2cc(C4CC4)cn2)CCO3)n1` [(S) I-56, 4-(9-((4-cyclopropyl-1H-pyrazol-1-yl)methyl)-8,9-dihydro-7H-6-oxa-1,2,2a^1-triazabenzo[cd]azulen-4-yl)-N-(1-methyl-1H-pyrazol-5-yl)pyrimidin-2-amine], half-maximal inhibition (IC50) required 1.39 nM.

As to `Cn1nccc1Nc1nccc(-c2cc3n4c(nnc4c2)[C@@H](Cc2ccc(F)cc2)CCO3)n1` [(S) I-58, 4-(9-(4-fluorobenzyl)-8,9-dihydro-7H-6-oxa-1,2,2a^1-triazabenzo[cd]azulen-4-yl)-N-(1-methyl-1H-pyrazol-5-yl)pyrimidin-2-amine], the IC50 came out at 0.311 nM.

As for `COc1ccc(C[C@H]2CC(=O)N(C)c3cc(-c4ccnc(Nc5ccnn5C)n4)cc4nnc2n34)cc1` [(S) I-62, 9-(4-methoxybenzyl)-6-methyl-4-(2-((1-methyl-1H-pyrazol-5-yl)amino)pyrimidin-4-yl)-8,9-dihydro-1,2,2a^1,6-tetraazabenzo[cd]azulen-7(6H)-one], the IC50 was 44 nM.

For `CCC[C@H]1CC(=O)N(C)c2cc(-c3ccnc(Nc4ccnn4C)n3)cc3nnc1n23` [(S) I-64, 6-methyl-4-(2-((1-methyl-1H-pyrazol-5-yl)amino)pyrimidin-4-yl)-9-propyl-8,9-dihydro-1,2,2a^1,6-tetraazabenzo[cd]azulen-7(6H)-one], the IC50 was determined as 0.149 nM.

`CN1C(=O)C[C@@H](C2CC2)c2nnc3cc(-c4ccnc(Nc5ccnn5C)n4)cc1n23` [(S) I-65, 9-cyclopropyl-6-methyl-4-(2-((1-methyl-1H-pyrazol-5-yl)amino)pyrimidin-4-yl)-8,9-dihydro-1,2,2a^1,6-tetraazabenzo[cd]azulen-7(6H)-one] registered an IC50 of 119 nM.

For the molecule `Cn1nccc1Nc1nccc(-c2cc3n4c(nnc4c2)[C@@H](Oc2ccc(F)cc2)CCO3)n1` [(S) I-66, 4-(9-(4-fluorophenoxy)-8,9-dihydro-7H-6-oxa-1,2,2a^1-triazabenzo[cd]azulen-4-yl)-N-(1-methyl-1H-pyrazol-5-yl)pyrimidin-2-amine], the IC50 amounted to 0.02 nM.

For `CN1C(=O)C[C@@H](CC(F)(F)F)c2nnc3cc(-c4ccnc(Nc5ccnn5C)n4)cc1n23` [(S) I-71, 6-methyl-4-(2-((1-methyl-1H-pyrazol-5-yl)amino)pyrimidin-4-yl)-9-(2,2,2-trifluoroethyl)-8,9-dihydro-1,2,2a^1,6-tetraazabenzo[cd]azulen-7(6H)-one], inhibition was half-maximal at 189 nM (IC50).

Consider `COc1ccc(C[C@H]2CC(=O)N(C)c3cc(-c4ccnc(Nc5ccnn5C)c4)cc4nnc2n34)c(F)c1` [(S) I-74, 9-(2-fluoro-4-methoxybenzyl)-6-methyl-4-(2-((1-methyl-1H-pyrazol-5-yl)amino)pyridin-4-yl)-8,9-dihydro-1,2,2a^1,6-tetraazabenzo[cd]azulen-7(6H)-one], for which inhibition was half-maximal at 2.85 nM (IC50).

Molecule `CC(C)C[C@H]1CC(=O)N(C)c2cc(-c3ccnc(Nc4ccnn4C)c3)cc3nnc1n23` [(S) I-75, 9-isobutyl-6-methyl-4-(2-((1-methyl-1H-pyrazol-5-yl)amino)pyridin-4-yl)-8,9-dihydro-1,2,2a^1,6-tetraazabenzo[cd]azulen-7(6H)-one] had an IC50 of 718 nM.

Consider `Cn1nccc1Nc1nccc(-c2cc3n4c(nnc4c2)[C@@H](Oc2cncc(Cl)c2)CCO3)n1` [(S) I-77, 4-(9-((5-chloropyridin-3-yl)oxy)-8,9-dihydro-7H-6-oxa-1,2,2a^1-triazabenzo[cd]azulen-4-yl)-N-(1-methyl-1H-pyrazol-5-yl)pyrimidin-2-amine], for which the IC50 was less than 0.02 nM.

`Cn1nccc1Nc1cc(-c2cc3n4c(nnc4c2)[C@@H](Oc2cncc(Cl)c2)CCO3)ccn1` [(S) I-78, 4-(9-((5-chloropyridin-3-yl)oxy)-8,9-dihydro-7H-6-oxa-1,2,2a^1-triazabenzo[cd]azulen-4-yl)-N-(1-methyl-1H-pyrazol-5-yl)pyridin-2-amine] yielded an IC50 of less than 0.02 nM.

Regarding `Cn1nccc1Nc1nccc(-c2cc3n4c(nnc4c2)[C@H](Cc2ccc(F)c(Cl)c2)CO3)n1` [(S) I-82, 4-(3-(3-chloro-4-fluorobenzyl)-3,4-dihydro-5-oxa-1,2,2a^1-triazaacenaphthylen-7-yl)-N-(1-methyl-1H-pyrazol-5-yl)pyrimidin-2-amine], it took 12.4 nM to reach half-maximal inhibition (IC50).

`CN1C(=O)C[C@H](Cc2ccc(Cl)cn2)c2nnc3cc(-c4ccnc(Nc5ccnn5C)n4)cc1n23` [(S) I-84, 9-((5-chloropyridin-2-yl)methyl)-6-methyl-4-(2-((1-methyl-1H-pyrazol-5-yl)amino)pyrimidin-4-yl)-8,9-dihydro-1,2,2a^1,6-tetraazabenzo[cd]azulen-7(6H)-one]: the IC50 was 32.7 nM.

`COc1ccc(C[C@H]2CC(=O)N(C)c3cc(-c4ccnc(Nc5ccnn5C)n4)cc4nnc2n34)c(F)c1` [(S) I-85, 9-(2-fluoro-4-methoxybenzyl)-6-methyl-4-(2-((1-methyl-1H-pyrazol-5-yl)amino)pyrimidin-4-yl)-8,9-dihydro-1,2,2a^1,6-tetraazabenzo[cd]azulen-7(6H)-one] came in with an IC50 of 25.9 nM. This IC50 and that of the molecule before are within 1.5-fold of each other.

Molecule `CC(C)[C@@H]1CC(=O)N(C)c2cc(-c3ccnc(Nc4ccnn4C)c3)cc3nnc1n23` [(S) I-87, 9-isopropyl-6-methyl-4-(2-((1-methyl-1H-pyrazol-5-yl)amino)pyridin-4-yl)-8,9-dihydro-1,2,2a^1,6-tetraazabenzo[cd]azulen-7(6H)-one] had an IC50 of 1000 nM.

The molecule `Cn1nccc1Nc1nccc(-c2cc3n4c(nnc4c2)[C@H](Cc2cccc(Cl)c2)CO3)n1` [(S) I-88, 4-(3-(3-chlorobenzyl)-3,4-dihydro-5-oxa-1,2,2a^1-triazaacenaphthylen-7-yl)-N-(1-methyl-1H-pyrazol-5-yl)pyrimidin-2-amine] showed an IC50 of 6.36 nM. This IC50 lies about 160-fold lower than the previous one.

As for `Cn1nccc1Nc1cc(-c2cc3n4c(nnc4c2)[C@H](Cn2cc(C(F)(F)F)cn2)CCO3)ccn1` [(S) I-89, N-(1-methyl-1H-pyrazol-5-yl)-4-(9-((4-(trifluoromethyl)-1H-pyrazol-1-yl)methyl)-8,9-dihydro-7H-6-oxa-1,2,2a^1-triazabenzo[cd]azulen-4-yl)pyridin-2-amine], the IC50 came out at 2.31 nM.

Molecule `Cn1nccc1Nc1nccc(-c2cc3n4c(nnc4c2)[C@@H](Oc2ccccc2)CCO3)n1` [(S) I-90, N-(1-methyl-1H-pyrazol-5-yl)-4-(9-phenoxy-8,9-dihydro-7H-6-oxa-1,2,2a^1-triazabenzo[cd]azulen-4-yl)pyrimidin-2-amine] returned an IC50 of less than 0.02 nM.

In turn, `Cn1nccc1Nc1nccc(-c2cc3n4c(nnc4c2)[C@@H](Oc2cncc(F)c2)CCO3)n1` [(S) I-91, 4-(9-((5-fluoropyridin-3-yl)oxy)-8,9-dihydro-7H-6-oxa-1,2,2a^1-triazabenzo[cd]azulen-4-yl)-N-(1-methyl-1H-pyrazol-5-yl)pyrimidin-2-amine] had an IC50 of 0.035 nM.
